Reference: US7951789B2 (priority 2006, dated 2011)
Where two headings read alike, the source gives them in different places.

Key:
[1] = tested on: wild-type HBV (intracellular nucleocapsids); experiment: Anti-HBV activity in HBV nucleocapsids (RI) via endogenous polymerase assay (EPA); type: cell-based; conditions: Hepatitis B virus; wild-type HBV producer cell line, intracellular nucleocapsids, EPA; read-out: RI EC50
Method: Compounds were tested in an anti-HBV assay. Determination of anti-HBV activity in HBV virions and nucleocapsids via endoenous polymerase assays (EPA)
• 1. 12-well collagen-I coated plates were seeded with producer cells expressing wild-type HBV at a density of 0.5-1×10^6 cells per well in 2 ml growth/selection media. • 2. Drug stock solutions were made up freshly in 100% DMSO as 200× stocks. Five additional 4-fold dilutions were prepared from these 200× stock in 100% DMSO. For each experiment, 4 aliquots of each drug dilution series were stored at −20° C. until used. • 3. Once cells reached confluency (1 day after cells were seeded), drug treatment was initiated by adding 10 μl of drug dilution into 2 ml of fresh growth/selection media. […] The no-drug control wells received only 10 μl of DMSO in fresh media. • 4. Cells were treated every-other-day with 2 ml of fresh drug/medium for a total of 8 days. Cell lysates were then collected on day 10 and subjected to EPA analysis as described below. Preparation of Nucleocapsid-Containing Lysates for Epa Analysis • 1. Cells were grown for 3 to 4 days in 12-well collagen-I coated plates until confluent. • 2. Media was carefully aspirated and the cell monolayers were rinsed once with 1 ml of PBS. • 3. One ml of lysis buffer (50 mM Tris-HCl pH 7.5/150 mM NaCl/5 mM MgCl2/0.2% NP-40) was added to each well. Plates were stored on ice for 30 min to 4 h. • 4. Lysed cells were transferred to 1.5 ml-microfuge tubes. • 5. Lysates were clarified by spinning at 14,000 rpm for 5 min at room temperature. • 6. Clarified lysates were transferred to fresh tubes and immediately frozen on dry-ice, then stored at −80° C. until endogenous polymerase assays were performed as described below. Preparation of Secreted Virions from Supernatant for Epa Analysis • 1. Cells were grown for 3 to 4 days in 12-well collagen-I coated plates until confluent. • 2. Media was carefully aspirated and transferred to 1.5 ml-microfuge tubes. • 3. Supernatants were clarified by spinning at 14,000 rpm for 5 min at room temperature. • 4. Clarified supernatants were transferred to fresh tubes and immediately frozen on dry-ice, then stored at −80° C. until endogenous polymerase assays were performed essentially as described below. Endogenous Polymerase Assay (EPA) of Cell Lysates and Supernatants • 1. EPAs were performed essentially as described by Seifer et al (1998). Intracellular HBV nucleocapsids were immunoprecipitated from the cytoplasmic lysates overnight at 4° C. with a polyclonal rabbit anti-HBcAg antibody and immobilized on protein A sepharose CL-4B beads. Secreted virions were immunoprecipitated from clarified cell supernatants overnight at 4° C. with a monoclonal mouse anti-LS antibody (MA18/7) in the absence of detergent. • 2. Following 3 washes of the immobilized capsids or virions with 1 ml of EPA wash buffer (75 mM NH4Cl, 50 mM Tris-HCl pH 7.4, 1 mM EDTA), endogenous polymerase reactions were initiated by adding 50 μl of detergent-containing EPA cocktail (50 mM Tris-HCl pH7.4, 75 mM NH4Cl, 1 mM EDTA, 20 mM MgCl2, 0.1 mM β-ME, 0.5% NP-40, 100 μM cold dGTP, TTP, dCTP, and 50 nM ^33P-dATP) and incubated overnight at 37° C. The detergent is required to strip the outer envelope from immunoprecipitated virions as well as to enhance permeability of the nucleocapsids. • 3. Following digestion with 1 mg/ml of proteinase K for 1 h at 37° C., endogenously ^33P-labeled HBV DNA was liberated via phenol/chloroform extraction. • 4. The nucleic acids were precipitated with 1 volume of 5M NH4-acetate and 2.5 volumes of 100% EtOH, and then separated on a 1% native agarose gel in Tris-borate-EDTA buffer. • 5. Gels were blotted onto positively charged nylon membrane overnight at room temperature via capillary transfer in 0.4 N NaOH. • 6. Dried membranes were exposed to a Phosphorlmager screen (GE Healthcare) overnight at room temperature, then scanned (Storm 860, GE Healthcare) and quantitated with ImageQuant software (GE Healthcare). • 7. […]

[2] = tested on: endogenous HBV polymerase activity; experiment: HBV drug susceptibility assay (EPA read-out); type: cell-based; conditions: for SI: CC50/EC50, HBV Cell Assay (EPA Read-out); for EC50: HBV Cell Assay (EPA Read-out), collagen plates, read-out: Antiviral Activity (EC50 in μM)
Method: • a) Collagen-I coated cell culture plates were seeded with cells at a density of 0.25-0.5×10^6 cells per well in 2 ml of growth/selection media. • b) Drug stock solutions were made up freshly in 100% DMSO as 200× stocks. Seven 4-fold dilutions of test compound were prepared ranging from 2.5 μM to 0.0006 μM (final). Master drug dilutions were divided into 4 aliquots, and then stored at −20° C. until used. • c) One day after cells were seeded, drug treatments were initiated by adding 10 μl of drug dilution along with 2 ml of fresh growth/selection media. […] The no-drug control wells received 10 μl of DMSO in fresh media. • d) Cells were treated every-other-day with 2 ml of fresh drug combinations/medium for a total of 8 days. Cell lysates were then collected on day 10 as described below and endogenous polymerase assay were performed. Preparation of Nucleocapsid-Containing Lysates for Epa Analysis • a) Two days after the final drug treatment, cells were harvested. • b) Media was carefully aspirated and the cell monolayers were rinsed once with 1 ml of PBS. • c) 1 ml of lysis buffer (50 mM Tris-HCl pH 7.5/150 mM NaCl/5 mM MgCl2/0.2% NP-40) was added to each well. The detergent is required to strip the outer envelope from virions and to allow capture of the inner nucleocapsids. Plates were kept on ice for >30 min. • d) Lysed cells were transferred to 1.5 ml-microfuge tubes. • e) Lysates were clarified by spinning at room temperature for 5 min at 14,000 rpm. • f) Clarified lysates were transferred to fresh tubes and immediately frozen on dry-ice, then stored at −80° C. until endogenous polymerase assays can be performed as described below. Endogenous Polymerase Assay (EPA) of Cell Lysates • a) EPAs were performed essentially as described in Seifer, et al (1998). J. Virol. 72: 2765-2776. […] The detergent is required to enhance permeability of the nucleocapsids. • d) Following digestion with 1 mg/ml of Proteinase K for 1 hour at 37° C., endogenously ^33P-labeled HBV DNA was liberated via phenol/chloroform extraction. • e) The nucleic acids were then precipitated with one volume of 5 M NH4-acetate and 2.5 volumes 100% EtOH, and separated on a 1% native agarose gel in Tris-borate buffer. • f) Gels were blotted onto positively charged nylon membrane overnight at room temperature via capillary transfer in 0.4 N NaOH. • g) Dried membranes were exposed to a phosphoimager screen (GE Healthcare) overnight at room temperature, then scanned (Storm 860, GE Healthcare) and quantitated with ImageQuant software (GE Healthcare). • h) Dose-response curves were generated using XLfit 4.1 software. The mean effective drug concentrations that inhibit endogenous HBV polymerase activity by 50% were calculated from several independent experiments. Cytotoxicity Determination

[3] = In vitro cytotoxicity assay in HepG2 cells (MTS); type: cell-based; conditions: human, collagen plates
Method: (§1) A standard in vitro cytotoxicity assay was performed in HepG2 cells. Cells were exposed to drug for 9 days. Cell viability was determined via MTS staining using a CellTiter 96 Aqueous One Solution cell proliferation assay according to the manufacturer's instructions. • a) HepG2 cells were seeded in 96-well tissue culture plates in 100 μl fresh growth media at 7×10^3 cells per well. • b) Drug stock solutions were made up in 100% DMSO as 400× stock solutions and stored at −20° C. until used. • c) Four hours after cells were plated the drug dilutions were prepared and then added to the cells. Cells received up to 100 μM of drug in a total of 200 μl of fresh growth media containing 0.25% DMSO. Control wells received growth media with 0.25% DMSO growth media. Plates were incubated at 37° C., 5% CO2. • d) Cells were treated every-other-day with fresh growth media and fresh drug dilutions for a total of 8 days as described above. • e) On day 9, cell viability of HepG2 cells was determined by adding 20 μl of MTS CellTiter 96 Aqueous One Solution.

[4] = tested on: HCV Conl subgenomic replicon (GS4.1 cells); experiment: HCV replicon assay (NS4A ELISA, HCV ELISA 2); type: cell-based; conditions: Hepatitis C virus; GS4.1 cells, 72 hours, NS4A ELISA; read-out: HCV ELISA 2 EC50
In short: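 Huh-7 GS4.1 replicon cells treated 72 h at 37° C. with ten 2-fold dilutions from 75 μM (or single 15 μM), 0.5% DMSO; NS4A measured by ELISA, absorbance 492 nm, replicon-free Huh-7 as negative control. EC50 by four-parameter sigmoidal fit. CC50 from same treatment by MTS-type Cell Titer 96 viability.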

[5] = Cytotoxicity evaluation in GS4.1 cells (Cell Titer 96 AQueous One Solution); type: cell-based; conditions: human, 72 hours
HBV wt (HepG2) = experiment: Anti-HBV activity in HBV-infected HepG2 cells; type: cell-based; conditions: N=3
Method: The compound of Example 1 (NM 204) (Hydroxy-tBuSATE N-benzylphosphoramidate derivative of L-ddA) (A550) was contacted with HBV-infected HepG2 cells. EC50 values were measured according to standard techniques.

HepG2 cells = experiment: In vitro cytotoxicity assay in HepG2 cells (MTS); type: cell-based; conditions: 9 days, collagen plates
Method: as §1

SMILES	EC50 [1] [nM]	SI [2]	EC50 ([2]; Hepatitis B virus) [µM]	CC50 at 9 days [3] [µM]	EC50 [4] [nM]	melting point [°C]	CC50 [5] [nM]	EC50 (HBV wt (HepG2)) [nM]	EC50 [2] [µM]	CC50 (HepG2 cells) [µM]
CC(C)(CO)C(=O)SCCOP(=O)(COCCn1cnc2c(N)ncnc21)NCc1ccccc1 (stereo not drawn) [Example B261, Hydroxy-tBuSATE N-benzylphosphonamidate Derivative of PMEA]	< 1000	1,225	0.016 ± 0.004	19.6	–	–	–	–	–	–
CC(C)(CO)C(=O)SCCOP(=O)(NCc1ccccc1)OC[C@H]1O[C@@H](n2ccc(N)nc2=O)[C@]2(C)OC(=O)O[C@H]12 (stereo partly drawn) [Example B302, Hydroxy-tBuSATE N-benzylphosphoramidate 2′,3′-cyclic carbonate Derivative of 2′-C-methylcytidine]	–	–	–	–	1000 to 10000	100 to 102	> 75000	–	–	–
Cc1cn([C@@H]2C[C@@H](O)[C@H](CO)O2)c(=O)[nH]c1=O [LdT]	–	>273	–	–	–	–	–	260 ± 48	0.366 ± 0.056	> 100
Nc1ncnc2c1ncn2CCOCP(=O)(O)O [PMEA]	< 1000	>310	0.328 ± 0.082	> 100	–	–	–	–	–	–
